In patent US11453657B2 (GlaxoSmithKline Intellectual Property Development Limited, priority 2018, dated 2022):
Structures can show the parent of a compound that is named as a salt. Where two headings read alike, the source gives them in different places.

System: P. falciparum infected erythrocytes
Assay: P. falciparum growth inhibition assay ([3H]hypoxanthine incorporation)
Assay type: cell-based, Plasmodium falciparum
Details: Plasmodium falciparum, Erythrocyte
Method: P. falciparum Growth Inhibition Assay.
The sensitivity of P. falciparum infected erythrocytes to the compound was determined in duplicate using the [3H]hypoxanthine incorporation method with an inoculum of 0.5% parasitemia (ring stage) and 2% hematocrit. The parasites were grown in RPMI 1640, 25 mM HEPES and supplemented with 5% Albumax. Plates are incubated at 37° C., 5% CO2, 5% O2, 90% N2. After 24 h of incubation, [3H]hypoxanthine is added and plates are incubated for another 24 h. After that period, plates are harvested on a glass fiber filter using a TOMTEC Cell harvester 96. Filters are dried and melt on scintillator sheets and the bound radioactivity is quantified by use of a Wallac Microbeta Trilux (Model 1450 LS—Perkin Elmer). IC50s are determined using Grafit 7 program (Grafit program; Erithacus Software, Horley, Surrey, United Kingdom).
Each example compound was tested generally in accordance with the above-mentioned assay and the PfIC50 value for each compound is reported in the Table below and according to the following: […]

[1] = [3H]hypoxanthine incorporation, 0.5% parasitemia, 2% hematocrit, 48 h, read-out: PfIC50 Media
[2] = hydrochloride salt of the example, same assay, read-out: PfIC50 Media (uM), (HCl)
[3] = hydrochloride salt, read-out: average PfIC50 of the hydrochloride salt

IC50 [1] [µM]	IC50 [2] [µM]	IC50 [3] [µM]	IC50 (read-out: average PfIC50) [µM]	SMILES
0.1 to 0.5				N#Cc1nnn(C[C@@H](O)COc2ccc(C(=O)N3CC[C@H](c4ccc(F)cc4)C3)cc2)n1 [Example 39, 2-((R)-3-(4-((R)-3-(4-Fluorophenyl)pyrrolidine-1-carbonyl)phenoxy)-2-hydroxypropyl)-2H-tetrazole-5-carbonitrile]
< 0.1	< 0.1	0.03	0.018	N[C@@H](COc1ccc(C(=O)N2CC[C@H](c3ccc(F)cc3)C2)cc1)Cn1ncnn1 [Example 45, (4-((R)-2-Amino-3-(2H-tetrazol-2-yl)propoxy)phenyl)((R)-3-(4-fluorophenyl)pyrrolidin-1-yl)methanone]
< 0.1				N[C@@H](COc1ccc(C(=O)N2CC[C@H](c3ccc(F)cc3)C2)cc1)Cn1cnnn1 [Example 46, (4-((R)-2-amino-3-(1H-tetrazol-1-yl)propoxy)phenyl)((R)-3-(4-fluorophenyl)pyrrolidin-1-yl)methanone]
< 0.1	< 0.1			N[C@@H](COc1ccc(C(=O)N2CC[C@H](c3ccc(Cl)cc3)C2)cc1)Cn1cnnn1 [Example 47, (4-((R)-2-amino-3-(1H-tetrazol-1-yl)propoxy)phenyl)((R)-3-(4-chlorophenyl)pyrrolidin-1-yl)methanone]
< 0.1			≤ 0.05	N[C@@H](COc1ccc(C(=O)N2CC[C@H](c3ccc(Cl)cc3)C2)cc1)Cn1ncnn1 [Example 48, (4-((R)-2-amino-3-(2H-tetrazol-2-yl)propoxy)phenyl)((R)-3-(4-chlorophenyl)pyrrolidin-1-yl)methanone]
0.1 to 0.5		0.31		N[C@H](COc1ccc(C(=O)N2CC[C@H](c3ccc(F)cc3)C2)cc1)Cn1ncnn1 [Example 49, (4-((S)-2-amino-3-(2H-tetrazol-2-yl)propoxy)phenyl)((R)-3-(4-fluorophenyl)pyrrolidin-1-yl)methanone, Hydrochloride]
0.1 to 0.5		0.219		N[C@@H](COc1ccc(C(=O)N2CC[C@@H](c3ccc(F)cc3)C2)cc1)Cn1ncnn1 [Example 50, (4-((R)-2-amino-3-(2H-tetrazol-2-yl)propoxy)phenyl)((S)-3-(4-fluorophenyl)pyrrolidin-1-yl)methanone, Hydrochloride]
		> 5		Cl.N[C@H](COc1ccc(C(=O)N2CC[C@@H](c3ccc(F)cc3)C2)cc1)Cn1ncnn1 [Example 51, (4-((S)-2-amino-3-(2H-tetrazol-2-yl)propoxy)phenyl)((S)-3-(4-fluorophenyl)pyrrolidin-1-yl)methanone, Hydrochloride]
0.1 to 0.5				N[C@@H](COc1ccc(C(=O)N2CC[C@H](c3ccc(F)cc3)C2)cc1)Cn1cncn1 [Example 52, (4-((R)-2-amino-3-(1H-1,2,4-triazol-1-yl)propoxy)phenyl)((R)-3-(4-fluorophenyl)pyrrolidin-1-yl)methanone, Hydrochloride]
< 0.1				N[C@@H](COc1ccc(C(=O)N2CC[C@H](c3ccc(F)cc3)C2)cc1)Cn1nccn1 [Example 53, (4-((R)-2-amino-3-(2H-1,2,3-triazol-2-yl)propoxy)phenyl)((R)-3-(4-fluorophenyl)pyrrolidin-1-yl)methanone, Hydrochloride]
0.1 to 0.5				N[C@@H](COc1ccc(C(=O)N2CC[C@H](c3ccc(F)cc3)C2)cc1)Cn1cccn1 [Example 55, (4-((R)-2-amino-3-(1H-pyrazol-1-yl)propoxy)phenyl)((R)-3-(4-fluorophenyl)pyrrolidin-1-yl)methanone, Hydrochloride]
0.1 to 0.5				N[C@@H](COc1ccc(C(=O)N2CC[C@H](c3ccc(F)cc3)C2)c(F)c1)Cn1ncnn1 [Example 56, (4-((R)-2-amino-3-(2H-tetrazol-2-yl)propoxy)-2-fluorophenyl)((R)-3-(4-fluorophenyl)pyrrolidin-1-yl)methanone, Hydrochloride]
